Test results reported in patent US7074190B2, “Non-invasive apparatus system for monitoring drug hepatoxicity and uses thereof” (priority 2002, dated 2006).

Columns and labels:
[1] = system: adult dogs; assay: Blood test for drug-induced hepatotoxicity, dog experiment
Procedure: Two adult dogs weighing 12 and 15 kg were used. One (coded A) of them received 500 mg/kg of body weight of acetaminophen oral solution (dissolved in water); and the other one (coded B) received a higher concentration (1,200 mg/kg of body weight) of acetaminophen via subcutaneous injection. After Nembutal was injected and the respirator was put on, the hair on the front legs of the dogs was shaved and a blood pressure waveform sensor was inserted by operation. The waveform of artery blood pressure waveform on brachial position was continuously recorded and analyzed by a computer with a frequency of 100 data per minute. After surgery and before the drug was orally taken or injected, the blood pressure waveform of each dog was measured for two hours as the baseline. After the drug was orally taken or injected, the blood pressure waveform was continuously monitored for analyzing the hepatotoxicity induced by the drug, and blood samples were periodically taken from a tube inserted into the artery for determining the level of hepatotoxicuty.

[2] = system: adult dogs; assay: Artery blood pressure waveform analysis before and after taking the drug, dog experiment; type: in vivo; details: Code A dog, 500 mg/kg oral
From the text: The definition of parameter altered amount is: (the parameter value after taking the drug—the parameter value before taking the drug)/the parameter value before taking the drug *100%

[3] = Code A dog, 500 mg/kg oral, 1 hour after the drug was administered
[4] = Code A dog, 500 mg/kg oral, 6 hours after the drug was administered
[5] = Code A dog, 500 mg/kg oral, 12 hours after the drug was administered
[6] = Code B dog, 1,200 mg/kg subcutaneous injection, 1 hour after the drug was administered
[7] = Code B dog, 1,200 mg/kg subcutaneous injection, 6 hours after the drug was administered
[8] = Code B dog, 1,200 mg/kg subcutaneous injection, 12 hours after the drug was administered
[9] = before and after taking the drug (12 hours)

Q: `CC(=O)Nc1ccc(O)cc1` [acetaminophen] was tested. Which “ALT (SGPT)” value [1, 3] did it give?
A: 25 IU/leter

Q: And the “ASG (SGOT)” value [1, 3]?
A: 35 IU/leter

Q: What about the Total biliflavin [1, 3] of the same compound?
A: 0.3 mg/dL

Q: And the “ALT (SGPT)” value [1, 4]?
A: 23 IU/leter

Q: What about the “ASG (SGOT)” value [1, 4] of the same compound?
A: 33 IU/leter

Q: And the Total biliflavin [1, 4]?
A: 0.2 mg/dL

Q: And the “ALT (SGPT)” value [1, 5]?
A: 24 IU/leter

Q: What about the “ASG (SGOT)” value [1, 5] of the same compound?
A: 45 IU/leter

Q: And the Total biliflavin [1, 5]?
A: 0.2 mg/dL

Q: And the “ALT (SGPT)” value [1, 6]?
A: 33 IU/leter

Q: What about the “ASG (SGOT)” value [1, 6] of the same compound?
A: 38 IU/leter

Q: What about the Total biliflavin [1, 6] of the same compound?
A: 0.2 mg/dL

Q: What about the “ALT (SGPT)” value [1, 7] of the same compound?
A: 37 IU/leter

Q: And the “ASG (SGOT)” value [1, 7]?
A: 198 IU/leter

Q: What about the Total biliflavin [1, 7] of the same compound?
A: 0.2 mg/dL

Q: And the “ALT (SGPT)” value [1, 8]?
A: 47 IU/leter

Q: What about the “ASG (SGOT)” value [1, 8] of the same compound?
A: 298 IU/leter

Q: What about the Total biliflavin [1, 8] of the same compound?
A: 0.2 mg/dL

Q: And the biliflavin ([1]; Code B dog, 1,200 mg/kg subcutaneous injection, acute poisoning experiment)?
A: does not raise significantly

Q: And the ALT ([1]; Code B dog, 1,200 mg/kg subcutaneous injection, after 12 hours)?
A: 47 IU/L

Q: What about the “AST (SGOT)” value ([1]; Code B dog, 1,200 mg/kg subcutaneous injection, after 12 hours, baseline 41) of the same compound?
A: 298 IU/liter

Q: And the “hepatotoxicity shown by blood test results” value ([1]; Code B dog, 1,200 mg/kg via subcutaneous injection)?
A: a certain level of hapatotoxicity

Q: What about the “Oblique angle parameter D1 = (Bb-Aa)/ab” value ([2]; 12 hours after taking the drug) of the same compound?
A: D1 = (Bb-Aa)/ab = 92 mmHg/sec.

Q: And the “Oblique angle parameter D2 = (Bb-Cc)/bc” value ([2]; 12 hours after taking the drug)?
A: D2 = (Bb-Cc)/bc = 350 mmHg/sec.

Q: And the “Oblique angle parameter D3 = (Dd-Cc)/cd” value ([2]; 12 hours after taking the drug)?
A: D3 = (Dd-Cc)/cd = 420 mmHg/sec.

Q: And the “Oblique angle parameter D4 = (Dd-Ee)/de” value ([2]; 12 hours after taking the drug)?
A: D4 = (Dd-Ee)/de = 110 mmHg/sec.

Q: And the “Oblique angle parameter D5 = D1 + D2” value ([2]; 12 hours after taking the drug)?
A: D5 = D1 + D2 = 1270 mmHg/sec.

Q: And the “Oblique angle parameter D6 = D3 + D4” value ([2]; 12 hours after taking the drug)?
A: D6 = D3 + D4 = 530 mmHg/sec.

Q: And the “Pressure parameter P1 = Aa” value ([2]; 12 hours after taking the drug)?
A: P1 = Aa = 149 mmHg

Q: And the “Pressure parameter P2 = Bb” value ([2]; 12 hours after taking the drug)?
A: P2 = Bb = 195 mmHg

Q: What about the “Pressure parameter P3 = Cc” value ([2]; 12 hours after taking the drug) of the same compound?
A: P3 = Cc = 156 mmHg

Q: And the “Pressure parameter P4 = Dd” value ([2]; 12 hours after taking the drug)?
A: P4 = Dd = 173 mmHg

Q: What about the “Pressure parameter P5 = Ee” value ([2]; 12 hours after taking the drug) of the same compound?
A: P5 = Ee = 149 mmHg

Q: And the “Ratio parameter RA1 = A6/A5” value ([2]; 12 hours after taking the drug)?
A: RA1 = A6/A5 = 1.46

Q: And the “Ratio parameter RA2 = A5/A7” value ([2]; 12 hours after taking the drug)?
A: RA2 = A5/A7 = 0.41

Q: And the “Ratio parameter RA3 = A6/A7” value ([2]; 12 hours after taking the drug)?
A: RA3 = A6/A7 = 0.59

Q: And the “Ratio parameter RP1 = Dd/Bb” value ([2]; 12 hours after taking the drug)?
A: RP1 = Dd/Bb = 0.89

Q: And the “Ratio parameter RT1 = ab/ae” value ([2]; 12 hours after taking the drug)?
A: RT1 = ab/ae = 0.12

Q: What about the “Ratio parameter RT2 = ac/ae” value ([2]; 12 hours after taking the drug) of the same compound?
A: RT2 = ac/ae = 0.40

Q: And the “Ratio parameter RT3 = ad/ae” value ([2]; 12 hours after taking the drug)?
A: RT3 = ad/ae = 0.49

Q: What about the “Superficial measure parameter A1 = AabB” value ([2]; 12 hours after taking the drug) of the same compound?
A: A1 = AabB = 9 sec. * mmHg

Q: What about the “Superficial measure parameter A2 = BbcC” value ([2]; 12 hours after taking the drug) of the same compound?
A: A2 = BbcC = 19 sec. * mmHg

Q: What about the “Superficial measure parameter A3 = CcdD” value ([2]; 12 hours after taking the drug) of the same compound?
A: A3 = CcdD = 7 sec. * mmHg

Q: And the “Superficial measure parameter A4 = DdeE” value ([2]; 12 hours after taking the drug)?
A: A4 = DdeE = 34 sec. * mmHg

Q: And the “Superficial measure parameter A5 = A1 + A2” value ([2]; 12 hours after taking the drug)?
A: A5 = A1 + A2 = 28 sec. * mmHg

Q: And the “Superficial measure parameter A6 = A3 + A4” value ([2]; 12 hours after taking the drug)?
A: A6 = A3 + A4 = 41 sec. * mmHg

Q: And the “Superficial measure parameter A7 = A5 + A6” value ([2]; 12 hours after taking the drug)?
A: A7 = A5 + A6 = 69 sec. * mmHg

Q: What about the “Time parameter T1 = ab” value ([2]; 12 hours after taking the drug) of the same compound?
A: T1 = ab = 0.05 second

Q: What about the “Time parameter T2 = bc” value ([2]; 12 hours after taking the drug) of the same compound?
A: T2 = bc = 0.11 second

Q: And the “Time parameter T3 = cd” value ([2]; 12 hours after taking the drug)?
A: T3 = cd = 0.04 second

Q: And the “Time parameter T4 = de” value ([2]; 12 hours after taking the drug)?
A: T4 = de = 0.21 second

Q: And the “Time parameter T5 = ae” value ([2]; 12 hours after taking the drug)?
A: T5 = ae = 0.41 second

Q: And the “Pressure parameter Altered amount P1 = Aa” value [2, 9]?
A: P1 = Aa = 0.7 mmHg

Q: And the “Pressure parameter Altered amount P2 = Bb” value [2, 9]?
A: P2 = Bb = 1.0 mmHg

Q: What about the “Pressure parameter Altered amount P3 = Cc” value [2, 9] of the same compound?
A: P3 = Cc = 1.3 mmHg

Q: What about the “Pressure parameter Altered amount P4 = Dd” value [2, 9] of the same compound?
A: P4 = Dd = 2.4 mmHg

Q: What about the “Pressure parameter Altered amount P5 = Ee” value [2, 9] of the same compound?
A: P5 = Ee = 0.7 mmHg

Q: What about the “Ratio parameter Altered amount RA1 = A6/A5” value [2, 9] of the same compound?
A: RA1 = A6/A5 = 12.3

Q: And the “Ratio parameter Altered amount RA2 = A5/A7” value [2, 9]?
A: RA2 = A5/A7 = −6.8

Q: And the “Ratio parameter Altered amount RA3 = A6/A7” value [2, 9]?
A: RA3 = A6/A7 = 5.3

Q: What about the “Ratio parameter Altered amount RP1 = Dd/Bb” value [2, 9] of the same compound?
A: RP1 = Dd/Bb = 9.2

Q: And the “Ratio parameter Altered amount RT1 = ab/ae” value [2, 9]?
A: RT1 = ab/ae = −25.0

Q: What about the “Ratio parameter Altered amount RT2 = ac/ae” value [2, 9] of the same compound?
A: RT2 = ac/ae = −5.0

Q: What about the “Ratio parameter Altered amount RT3 = ad/ae” value [2, 9] of the same compound?
A: RT3 = ad/ae = −11.0

Q: And the “Superficial measure parameter Altered amount A1 = AabB” value [2, 9]?
A: Al = AabB = −10.0 sec. * mmHg

Q: What about the “Superficial measure parameter Altered amount A2 = BbcC” value [2, 9] of the same compound?
A: A2 = BbcC = 11.8 sec. * mmHg

Q: And the “Superficial measure parameter Altered amount A3 = CcdD” value [2, 9]?
A: A3 = CcdD = −12.5 sec. * mmHg

Q: What about the “Superficial measure parameter Altered amount A4 = DdeE” value [2, 9] of the same compound?
A: A4 = DdeE = 25.9 sec. * mmHg

Q: And the “Superficial measure parameter Altered amount A5 = A1 + A2” value [2, 9]?
A: A5 = A1 + A2 = 3.7 sec. * mmHg

Q: And the “Superficial measure parameter Altered amount A6 = A3 + A4” value [2, 9]?
A: A6 = A3 + A4 = 17.1 sec. * mmHg

Q: And the “Superficial measure parameter Altered amount A7 = A5 + A6” value [2, 9]?
A: A7 = A5 + A6 = 11.3 sec. * mmHg

Q: And the “Time parameter Altered Amount T2 = bc” value [2, 9]?
A: T2 = bc = 10.0 second
